Results on 13 molecules are retold here after patent publication US20240238423A9, “TETRAHYDROISOQUINOLINE HETEROBIFUNCTIONAL BCL-XL DEGRADERS” (Treeline Biosciences, Inc., priority 2022, published 2024).

Each structure is given as a SMILES string. Like-named read-outs stand apart in the source and are kept apart here.

This experiment concerns the target T1, Human BCL-XL protein (N-terminal HiBiT tagged BCL-XL in HT1080 cells) (Homo sapiens, UniProt Q07817).
T1 construct: expressed in transfected cells; host or cells: HT-1080 (ATCC CCL-121), stably transduced with lentivirus pLV-UBC-N-HiBiT-BCL-XL-PGK-puro and selected with puromycin
As to the kind of experiment: HiBiT based degradation assay. It is filed as cell-based. Conditions: HT1080 cells expressing HiBiT-BCL-XL; for Ymin (6 h) / Ymin (24 h): BCL-XL degradation normalized with DMSO control; for DC50: BCL-XL degradation. Summed up: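 HT1080 cells stably transduced by lentivirus with N-terminally HiBiT-tagged human BCL-XL and kept under 1 μg/mL puromycin selection were seeded at three thousand cells per well in 40 μL RPMI 1640 into 384-well plates pre-spotted with compounds across a concentration range. Luminescence was read on a PHERAstar FSX, normalized to DMSO, and fitted with a four-parameter logistic model.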
On the technique in general: HiBiT is a short tag that completes a luciferase, so light tracks the accessible tagged protein.

T1 sequence (Q07817 whole entry): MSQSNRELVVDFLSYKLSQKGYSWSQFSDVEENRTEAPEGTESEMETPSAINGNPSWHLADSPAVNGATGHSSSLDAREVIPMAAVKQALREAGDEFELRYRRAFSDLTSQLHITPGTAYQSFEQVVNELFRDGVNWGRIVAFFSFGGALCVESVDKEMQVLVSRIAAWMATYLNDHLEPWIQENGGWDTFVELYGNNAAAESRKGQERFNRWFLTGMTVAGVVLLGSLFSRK

As to `Cc1c(OCCCC2CCN(CC(=O)Nc3ccc4c(C5CCC(=O)NC5=O)nn(C)c4c3)CC2)cccc1-c1ccc(N2CCc3cccc(C(=O)Nc4nc5ccccc5s4)c3C2)nc1C(=O)O` (stereo not drawn) [Compound 121, 6-(8-(Benzo[d]thiazol-2-ylcarbamoyl)-3,4-dihydroisoquinolin-2(1H)-yl)-3-(3-(3-(1-(2-((3-(2,6-dioxopiperidin-3-yl)-1-methyl-1H-indazol-6-yl)amino)-2-oxoethyl)piperidin-4-yl)propoxy)-2-methylphenyl)picolinic acid], under “6 h”, the “Ymin (6 h)” value was “A (Ymin < 50%)”. The “Ymin (24 h)” value (24 h) was “A (Ymin < 50%)”. Moreover, the DC50 (6 h, read-out: EC50 (6 h)) was less than 100 nM and the DC50 (24 h, read-out: EC50 (24 h)) is less than 100 nM.

With `Cc1c(OCCCN2CCC(CC(=O)Nc3cccc4c(C5CCC(=O)NC5=O)nn(C)c34)CC2)cccc1-c1ccc(N2CCc3cccc(C(=O)Nc4nc5ccccc5s4)c3C2)nc1C(=O)O` (stereo not drawn) [Compound 122, 6-[8-(1,3-benzothiazol-2-ylcarbamoyl)-3,4-dihydro-1H-isoquinolin-2-yl]-3-[3-[3-[4-[2-[[3-(2,6-dioxo-3-piperidyl)-1-methyl-indazol-7-yl]amino]-2-oxo-ethyl]-1-piperidyl]propoxy]-2-methyl-phenyl]pyridine-2-carboxylic acid], the “Ymin (6 h)” value (6 h) is listed as “B (50% ≤ Ymin < 70%)”. The “Ymin (24 h)” value (24 h) is on record as “B (50% ≤ Ymin < 70%)”. In addition, the DC50 is, setting by setting: (6 h, read-out: EC50 (6 h)) less than 100 nM; (24 h, read-out: EC50 (24 h)) less than 100 nM.

Turning to `Cc1c(Oc2ccc(CCCNc3ccc4c(C5CCC(=O)NC5=O)nn(C)c4c3)cc2)cccc1-c1ccc(N2CCc3cccc(C(=O)Nc4nc5ccccc5s4)c3C2)nc1C(=O)O` (stereo not drawn) [Compound 123, 6-[8-(1,3-benzothiazol-2-ylcarbamoyl)-3,4-dihydro-1H-isoquinolin-2-yl]-3-[3-[4-[3-[[3-(2,6-dioxo-3-piperidyl)-1-methyl-indazol-6-yl]amino]propyl]phenoxy]-2-methyl-phenyl]pyridine-2-carboxylic acid], the “Ymin (6 h)” value (6 h) is reported as “C (Ymin ≥ 70%)”. Besides, the DC50 (6 h, read-out: EC50 (6 h)) fell in the range of 100 to 1000 nM.

Consider `Cc1c(O[C@H]2CC[C@H](CCC(=O)Nc3cccc4c(C5CCC(=O)NC5=O)nn(C)c34)CC2)cccc1-c1ccc(N2CCc3cccc(C(=O)Nc4nc5ccccc5s4)c3C2)nc1C(=O)O` (stereo partly drawn) [Compound 124a, 6-(8-(benzo[d]thiazol-2-ylcarbamoyl)-3,4-dihydroisoquinolin-2(1H)-yl)-3-(3-(((1r,4r)-4-(3-((3-(2,6-dioxopiperidin-3-yl)-1-methyl-1H-indazol-7-yl)amino)-3-oxopropyl)cyclohexyl)oxy)-2-methylphenyl)picolinic acid], for which, for the setting “6 h”, the “Ymin (6 h)” value was “C (Ymin ≥ 70%)”. The “Ymin (24 h)” value (24 h) is “C (Ymin ≥ 70%)”. Besides, the DC50 is 1000 to 10000 nM (6 h, read-out: EC50 (6 h)) and less than 100 nM (24 h, read-out: EC50 (24 h)).

For the molecule `Cc1c(O[C@H]2CC[C@H](CCC(=O)Nc3ccc4c(C5CCC(=O)NC5=O)nn(C)c4c3)CC2)cccc1-c1ccc(N2CCc3cccc(C(=O)Nc4nc5ccccc5s4)c3C2)nc1C(=O)O` (stereo partly drawn) [Compound 125a, 6-(8-(benzo[d]thiazol-2-ylcarbamoyl)-3,4-dihydroisoquinolin-2(1H)-yl)-3-(3-(((1r,4r)-4-(3-((3-(2,6-dioxopiperidin-3-yl)-1-methyl-1H-indazol-6-yl)amino)-3-oxopropyl)cyclohexyl)oxy)-2-methylphenyl)picolinic acid], the “Ymin (6 h)” value (6 h) is “C (Ymin ≥ 70%)”. Further, for the setting “24 h”, the “Ymin (24 h)” value is “C (Ymin ≥ 70%)”. The DC50 runs as follows: (6 h, read-out: EC50 (6 h)) 1000 to 10000 nM; (24 h, read-out: EC50 (24 h)) 1000 to 10000 nM.

For the molecule `Cn1nc(C2CCC(=O)NC2=O)c2ccc(NC(=O)CN3CCN(CCOc4cccc(-c5ccc(N6CCc7cccc(C(=O)Nc8nc9ccccc9s8)c7C6)nc5C(=O)O)c4C(F)(F)F)CC3)cc21` (stereo not drawn) [Compound 126, 6-(8-(benzo[d]thiazol-2-ylcarbamoyl)-3,4-dihydroisoquinolin-2(1H)-yl)-3-(3-(2-(4-(2-((3-(2,6-dioxopiperidin-3-yl)-1-methyl-1H-indazol-6-yl)amino)-2-oxoethyl)piperazin-1-yl)ethoxy)-2-(trifluoromethyl)phenyl)picolinic acid], the “Ymin (6 h)” value (6 h) is listed as “B (50% ≤ Ymin < 70%)”. Moreover, where the note is “6 h, read-out: EC50 (6 h)”, the DC50 lay within 100 to 1000 nM.

In the case of `Cc1c(OCCCN2C[C@H]3CC[C@@H](C2)N3CC(=O)Nc2ccc3c(C4CCC(=O)NC4=O)nn(C)c3c2)cccc1-c1ccc(N2CCc3cccc(C(=O)Nc4nc5ccccc5s4)c3C2)nc1C(=O)O` (stereo partly drawn) [Compound 127, 6-(8-(benzo[d]thiazol-2-ylcarbamoyl)-3,4-dihydroisoquinolin-2(1H)-yl)-3-(3-(3-((1R,5S)-8-(2-((3-(2,6-dioxopiperidin-3-yl)-1-methyl-1H-indazol-6-yl)amino)-2-oxoethyl)-3,8-diazabicyclo[3.2.1]octan-3-yl)propoxy)-2-methylphenyl)picolinic acid], the “Ymin (6 h)” value (6 h) is on record as “B (50% ≤ Ymin < 70%)”. Also, the “Ymin (24 h)” value (24 h) is “A (Ymin < 50%)”. Besides, the DC50 by setting is: (6 h, read-out: EC50 (6 h)) less than 100 nM; (24 h, read-out: EC50 (24 h)) less than 100 nM.

For the molecule `Cc1c(Oc2ccccc2CCCC(=O)Nc2cccc3c(C4CCC(=O)NC4=O)nn(C)c23)cccc1-c1ccc(N2CCc3cccc(C(=O)Nc4nc5ccccc5s4)c3C2)nc1C(=O)O` (stereo not drawn) [Compound 128, 6-(8-(benzo[d]thiazol-2-ylcarbamoyl)-3,4-dihydroisoquinolin-2(1H)-yl)-3-(3-(2-(4-((3-(2,6-dioxopiperidin-3-yl)-1-methyl-1H-indazol-7-yl)amino)-4-oxobutyl)phenoxy)-2-methylphenyl)picolinic acid], the “Ymin (6 h)” value (6 h) is given as “C (Ymin ≥ 70%)”. The “Ymin (24 h)” value (24 h) was “C (Ymin ≥ 70%)”. Besides, the DC50 (6 h, read-out: EC50 (6 h)) was 1000 to 10000 nM and the DC50 (24 h, read-out: EC50 (24 h)) was less than 100 nM.

Regarding `Cc1c(Oc2ccccc2CCCC(=O)Nc2ccc3c(C4CCC(=O)NC4=O)nn(C)c3c2)cccc1-c1ccc(N2CCc3cccc(C(=O)Nc4nc5ccccc5s4)c3C2)nc1C(=O)O` (stereo not drawn) [Compound 129, 6-(8-(benzo[d]thiazol-2-ylcarbamoyl)-3,4-dihydroisoquinolin-2(1H)-yl)-3-(3-(2-(4-((3-(2,6-dioxopiperidin-3-yl)-1-methyl-1H-indazol-6-yl)amino)-4-oxobutyl)phenoxy)-2-methylphenyl)picolinic acid], the “Ymin (6 h)” value (6 h) is “C (Ymin ≥ 70%)”. Further, for the setting “24 h”, the “Ymin (24 h)” value was “C (Ymin ≥ 70%)”. Further, the DC50 is, setting by setting: (6 h, read-out: EC50 (6 h)) 1000 to 10000 nM; (24 h, read-out: EC50 (24 h)) less than 100 nM.

For `Cc1c(CCCCN2CCN(CC(=O)Nc3ccc4c(C5CCC(=O)NC5=O)nn(C)c4c3)CC2)cccc1-c1ccc(N2CCc3cccc(C(=O)Nc4nc5ccccc5s4)c3C2)nc1C(=O)O` (stereo not drawn) [Compound 130, 6-[8-(1,3-Benzothiazol-2-ylcarbamoyl)-3,4-dihydro-1H-isoquinolin-2-yl]-3-[3-[4-[4-[2-[[3-(2,6-dioxo-3-piperidyl)-1-methyl-indazol-6-yl]amino]-2-oxo-ethyl]piperazin-1-yl]butyl]-2-methyl-phenyl]pyridine-2-carboxylic acid], the “Ymin (6 h)” value (6 h) was “A (Ymin < 50%)”. Moreover, the “Ymin (24 h)” value (24 h) is listed as “A (Ymin < 50%)”. For the same molecule, the DC50 (6 h, read-out: EC50 (6 h)) is less than 100 nM and the DC50 (24 h, read-out: EC50 (24 h)) was less than 100 nM.

For the molecule `Cc1c(OCCCN2[C@H](C)CN(CC(=O)Nc3ccc4c(C5CCC(=O)NC5=O)nn(C)c4c3)C[C@@H]2C)cccc1-c1ccc(N2CCc3cccc(C(=O)Nc4nc5ccccc5s4)c3C2)nc1C(=O)O` (stereo partly drawn) [Compound 131a, 6-[8-(1,3-benzothiazol-2-ylcarbamoyl)-3,4-dihydro-1H-isoquinolin-2-yl]-3-[3-[3-[(2R,6S)-4-[2-[[3-(2,6-dioxo-3-piperidyl)-1-methyl-indazol-6-yl]amino]-2-oxo-ethyl]-2,6-dimethyl-piperazin-1-yl]propoxy]-2-methyl-phenyl]pyridine-2-carboxylic acid], where the note is “6 h”, the “Ymin (6 h)” value was “A (Ymin < 50%)”. For the setting “24 h”, the “Ymin (24 h)” value is “A (Ymin < 50%)”. Further, the DC50 runs as follows: (6 h, read-out: EC50 (6 h)) less than 100 nM; (24 h, read-out: EC50 (24 h)) less than 100 nM.

For `Cc1c(Oc2ccc(CCCC(=O)Nc3ccc4c(C5CCC(=O)NC5=O)nn(C)c4c3)cc2)cccc1-c1ccc(N2CCc3cccc(C(=O)Nc4nc5ccccc5s4)c3C2)nc1C(=O)O` (stereo not drawn) [Compound 132, 6-(8-(benzo[d]thiazol-2-ylcarbamoyl)-3,4-dihydroisoquinolin-2(1H)-yl)-3-(3-(4-(4-((3-(2,6-dioxopiperidin-3-yl)-1-methyl-1H-indazol-6-yl)amino)-4-oxobutyl)phenoxy)-2-methylphenyl)picolinic acid], where the note is “6 h”, the “Ymin (6 h)” value is reported as “C (Ymin ≥ 70%)”. Moreover, the “Ymin (24 h)” value (24 h) is “B (50% ≤ Ymin < 70%)”. Besides, the DC50 lay within 1000 to 10000 nM (6 h, read-out: EC50 (6 h)) and 100 to 1000 nM (24 h, read-out: EC50 (24 h)).

Take `Cc1c(OCCCN2CCN(CCCOc3ccc4c(C5CCC(=O)NC5=O)nn(C)c4c3)CC2)cccc1-c1ccc(N2CCc3cccc(C(=O)Nc4nc5ccccc5s4)c3C2)nc1C(=O)O` (stereo not drawn) [Compound 133, 6-(8-(Benzo[d]thiazol-2-ylcarbamoyl)-3,4-dihydroisoquinolin-2(1H)-yl)-3-(3-(3-(4-(3-((3-(2,6-dioxopiperidin-3-yl)-1-methyl-1H-indazol-6-yl)oxy)propyl)piperazin-1-yl)propoxy)-2-methylphenyl)picolinic acid]: the “Ymin (6 h)” value (6 h) was “A (Ymin < 50%)”. For the setting “24 h”, the “Ymin (24 h)” value is given as “A (Ymin < 50%)”. Further, the DC50 runs as follows: (6 h, read-out: EC50 (6 h)) less than 100 nM; (24 h, read-out: EC50 (24 h)) less than 100 nM.
